Results as given in patent US9067935B2 (Janssen Pharmaceutica, NV, priority 2010, dated 2015).
Where “and” joins values, the source holds several entries; their conditions need not be identical. Equal entries are not always repeated. Where two headings read alike, the source gives them in different places.

How the values were obtained:
canine TRPM8 = canine TRPM8 (Canis lupus familiaris, UniProt Q1A7N1); assay: In Vitro Canine TRPM8 Functional Assay (intracellular Ca2+ fluorescence, icilin challenge); format: cell-based; settings: for IC50: icilin at ~80% maximal response
Chain of canine TRPM8 (Q1A7N1 1-1104): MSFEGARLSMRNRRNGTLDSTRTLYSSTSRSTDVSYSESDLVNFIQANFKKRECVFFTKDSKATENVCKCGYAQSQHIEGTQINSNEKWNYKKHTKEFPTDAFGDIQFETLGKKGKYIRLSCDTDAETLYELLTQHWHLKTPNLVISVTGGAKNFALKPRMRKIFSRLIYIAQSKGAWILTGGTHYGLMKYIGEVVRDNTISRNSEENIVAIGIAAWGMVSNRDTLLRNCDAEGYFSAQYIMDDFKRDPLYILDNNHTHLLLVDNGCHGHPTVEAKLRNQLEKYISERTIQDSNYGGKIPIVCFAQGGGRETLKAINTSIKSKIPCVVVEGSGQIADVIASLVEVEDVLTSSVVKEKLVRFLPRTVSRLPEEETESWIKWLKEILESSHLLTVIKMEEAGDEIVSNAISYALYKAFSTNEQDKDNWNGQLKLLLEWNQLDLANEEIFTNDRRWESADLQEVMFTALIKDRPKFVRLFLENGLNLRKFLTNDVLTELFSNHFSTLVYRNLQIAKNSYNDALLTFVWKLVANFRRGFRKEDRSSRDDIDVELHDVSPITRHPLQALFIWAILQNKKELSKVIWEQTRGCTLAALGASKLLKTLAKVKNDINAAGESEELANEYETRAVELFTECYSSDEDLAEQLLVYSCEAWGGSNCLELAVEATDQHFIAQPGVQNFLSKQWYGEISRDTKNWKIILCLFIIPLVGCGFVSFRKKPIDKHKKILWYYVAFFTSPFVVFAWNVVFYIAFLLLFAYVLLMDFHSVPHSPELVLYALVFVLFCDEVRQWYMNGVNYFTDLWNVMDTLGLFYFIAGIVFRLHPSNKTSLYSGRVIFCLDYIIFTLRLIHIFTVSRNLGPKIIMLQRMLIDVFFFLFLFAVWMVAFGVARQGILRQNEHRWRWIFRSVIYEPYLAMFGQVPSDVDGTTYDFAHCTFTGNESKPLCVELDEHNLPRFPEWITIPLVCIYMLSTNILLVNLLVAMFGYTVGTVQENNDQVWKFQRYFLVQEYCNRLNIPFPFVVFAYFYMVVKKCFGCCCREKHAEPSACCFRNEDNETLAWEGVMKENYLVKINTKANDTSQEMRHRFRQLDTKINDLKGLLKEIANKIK
Description: The functional activity of compounds of the formula (I) was determined by measuring changes in intracellular calcium concentration using a Ca^2+-sensitive fluorescent dye. The changes in fluorescent signal were monitored by a fluorescence plate reader, either a FLIPR™ (Molecular Devices) or FDSS (Hamamatsu).
At 24 hrs prior to assay, HEK293 cells stably expressing canine TRPM8 were seeded in culture medium in black wall, clear-base poly-D-lysine coated 384-well plates (BD Biosciences, NJ, USA) and grown overnight in 5% CO2 at 37° C. On assay day, growth media was removed and cells were loaded with Calcium 3 Dye (Molecular Devices) for 35 min at 37° C., under 5% CO2 and then for 25 min at room temperature and atmosphere. Subsequently, cells were tested for agonist-induced increases in intracellular Ca^2+ levels using FLIPR™ or FDSS. Cells were challenged with a compound of the Formula (I) (at varying concentrations) and intracellular Ca^2+ was measured for 5 min prior to the addition of icilin to all wells to achieve a final concentration that produces approximately an 80% maximal response. EC50 or IC50 values for compounds of the present invention were determined from eight-point dose-response studies. Curves were generated using the average of quadruplicate wells for each data point.

Male Sprague Dawley rats = assay: Inhibition of Icilin-Induced "Wet-Dog" Shakes in Rats; format: in vivo; settings: rat, dose 10, p.o.
Description: Similar shaking or jumping behavior was also evident in mice, rabbits, cats, dogs and monkeys. In humans, icilin produced a sensation of coolness on contact with mucous membranes, cold prickling when 0.1 mg was dropped on the tongue and coldness in the mouth, pharynx and chest lasting 30-60 minutes when 5-10 mg was ingested orally (Wei E T, Seid D A, J Pharm Pharmacol. 1983, 35, 110). The inhibition or reversal of icilin-induced shaking behaviors in rodents provides evidence for the utility of TRPM8 antagonists of the formula (I) in treating or preventing a disease, syndrome, disorder, or condition in a subject in which the disease, syndrome, disorder or condition is affected by the modulation of TRPM8 receptors.
Male Sprague Dawley rats (220-450 g, Charles River Labs, n=6-9/treatment) may be used to evaluate the ability of selected compounds of the formula (I) to block icilin-induced “wet-dog” shakes (WDS). Compounds of the formula (I) may be administered in an appropriate vehicle, such as hydroxypropyl-β-cyclodextrin (HPIβCD), methocellulose, 10% Solutol, or H2O, or the like, by the appropriate route, i.p. or p.o., 30-120 minutes before icilin. Icilin may be administered in PEG-400 or 10% solutol/H2O, at 1.0 or 3.0 mg/kg, i.p. and spontaneous “wet-dog” shakes may be counted 10-20 minutes post-icilin.

TRPM8 = TRPM8 (Mus musculus (Mouse), UniProt Q8R4D5); settings: TRPM8 transfected cells (Behrendt H J et al. 2004); cited from earlier work
Chain of TRPM8 (Q8R4D5 whole entry): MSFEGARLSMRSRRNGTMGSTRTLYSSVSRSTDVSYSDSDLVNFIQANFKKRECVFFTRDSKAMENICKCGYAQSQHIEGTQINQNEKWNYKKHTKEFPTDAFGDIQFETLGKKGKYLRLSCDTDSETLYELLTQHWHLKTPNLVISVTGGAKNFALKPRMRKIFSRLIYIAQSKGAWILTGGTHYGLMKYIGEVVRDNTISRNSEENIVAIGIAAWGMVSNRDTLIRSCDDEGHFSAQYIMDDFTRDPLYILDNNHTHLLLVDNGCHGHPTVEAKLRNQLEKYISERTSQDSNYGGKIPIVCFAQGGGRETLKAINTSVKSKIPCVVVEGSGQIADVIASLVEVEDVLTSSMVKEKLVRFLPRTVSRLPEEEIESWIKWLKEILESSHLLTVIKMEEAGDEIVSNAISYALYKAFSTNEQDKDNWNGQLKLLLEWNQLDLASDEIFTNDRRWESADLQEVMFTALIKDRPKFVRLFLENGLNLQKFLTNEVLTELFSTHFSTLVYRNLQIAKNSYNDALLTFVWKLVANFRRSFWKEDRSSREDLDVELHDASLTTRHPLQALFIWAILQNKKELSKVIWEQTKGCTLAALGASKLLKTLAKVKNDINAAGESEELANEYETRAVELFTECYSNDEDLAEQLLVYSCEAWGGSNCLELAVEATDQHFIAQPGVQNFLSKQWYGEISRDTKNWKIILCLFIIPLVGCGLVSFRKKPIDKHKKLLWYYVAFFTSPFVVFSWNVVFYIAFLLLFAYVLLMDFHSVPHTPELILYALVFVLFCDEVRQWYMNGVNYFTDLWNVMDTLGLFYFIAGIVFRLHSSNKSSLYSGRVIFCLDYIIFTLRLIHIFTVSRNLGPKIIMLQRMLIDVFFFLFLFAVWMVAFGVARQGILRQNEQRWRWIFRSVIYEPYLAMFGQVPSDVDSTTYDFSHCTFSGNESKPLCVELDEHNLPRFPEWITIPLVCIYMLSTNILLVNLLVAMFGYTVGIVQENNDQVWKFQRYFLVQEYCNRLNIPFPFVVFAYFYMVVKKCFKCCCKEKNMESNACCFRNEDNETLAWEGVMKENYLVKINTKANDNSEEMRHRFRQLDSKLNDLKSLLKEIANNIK

[1] = HEK293 cells stably expressing canine TRPM8
[2] = vehicle 20% HPβCD, form CO2−Na+
[3] = HEK293, @ 0.2 μM, HEK293 cells stably expressing canine TRPM8, read-out: % Inh (%) @ 0.2 μM
[4] = HEK293, read-out: % Inh (%) @ 0.2 μM

Row | IC50 (canine TRPM8; [1]) | inhibition at 0.2 µM (canine TRPM8; [3]) | SMILES | also measured
1 |  | 100% | Cc1c(N(Cc2ccc(C(F)(F)F)c(F)c2)S(=O)(=O)c2ccccc2)nc2ccc(Cl)cn12 [Compound 38] | % Inhibition (Male Sprague Dawley rats; vehicle 20% HPβCD, form Hydrochloride): 6.5%
2 | 18.3 nM and 23.5 nM and 28.6 nM | 97% | O=S(=O)(c1ccccc1)N(Cc1ccc(F)c(C(F)(F)F)c1)c1nc2ccc(Cl)cn2c1Cl [Compound 8] | % Inh (%) @ 0.2 μM (canine TRPM8; [1]): 96%; % Inhibition (Male Sprague Dawley rats; vehicle 10% Solutol, form Hydrochloride): 15.5%
3 |  |  | Cc1c(N(Cc2ccc(F)c(F)c2)S(=O)(=O)c2ccc(C(=O)O)cc2)nc2ccc(Cl)cn12 [Compound 114] | inhibition at 0.2 µM (canine TRPM8; [4]): 38%
4 |  |  | O=C(O)c1ccc(S(=O)(=O)N(Cc2ccc(OC(F)(F)F)cc2)c2nc3ccccn3c2Cl)cc1 [Compound 6] | inhibition at 0.2 µM (canine TRPM8; [4]): 102%
5 | 9.83 nM | 100% | Cc1cccn2c(C)c(N(Cc3cccc(C(F)(F)F)c3)S(=O)(=O)c3ccccc3)nc12 [Compound 34] | 
6 | 12.3 nM | 101% | CC(C)c1c(N(Cc2ccc(F)c(C(F)(F)F)c2)S(=O)(=O)c2ccccc2)nc2ccccn12 [Compound 50] | 
7 | 80.2 nM | 97% | CCc1c(N(Cc2cccc(C(F)(F)F)c2)S(=O)(=O)c2ccccc2)nc2c(C(F)(F)F)cccn12 [Compound 59] | 
8 | 3.25 nM |  | O=S(=O)(c1ccccc1)N(Cc1ccc(F)c(C(F)(F)F)c1)c1nc2ccccn2c1Cl [Compound 1] | 
9 | 15.1 nM | 99% | O=S(=O)(c1ccc(-n2cccn2)cc1)N(Cc1cccc(C(F)(F)F)c1)c1nc2ccccn2c1Cl [Compound 99] | 
10 | 10.7 nM | 99% | O=S(=O)(c1ccc(N2CCOCC2)nc1)N(Cc1ccc(F)c(C(F)(F)F)c1)c1nc2ccccn2c1Br [Compound 86] | 
11 |  |  | O=C1NC(c2cccc([N+](=O)[O-])c2)=CCN1c1ccccc1O [icilin] | EC50 (TRPM8): 200 nM
12 | 18 nM | 100% | COC(=O)c1ccc(S(=O)(=O)N(Cc2ccc(OC(F)(F)F)cc2)c2nc3ccc(F)cn3c2C)cc1 [Compound 118, Methyl 4-(N-(6-fluoro-3-methylimidazo[1,2-a]pyridin-2-yl)-N-(4-(trifluoromethoxy)benzyl)sulfamoyl)benzoate] | 
13 |  |  | Cc1c(N(Cc2ccc(F)c(C(F)(F)F)c2)S(=O)(=O)c2ccc(C(=O)O)cc2)nc2ccc(Cl)cn12 [Compound 115] | inhibition at 0.2 µM (canine TRPM8; [4]): 96%
14 | 62.1 nM | 96% | Cc1ccn2c(C)c(N(Cc3ccc(OC(F)(F)F)cc3)S(=O)(=O)c3ccc(F)cc3)nc2c1 [Compound 67] | 
15 | 7.92 nM | 101% | CC(C)c1c(N(Cc2cccc(C(F)(F)F)c2)S(=O)(=O)c2ccccc2)nc2ccccn12 [Compound 54] | 
16 | 30.3 nM | 98% | Cc1c(N(Cc2ccc(C(F)(F)F)cc2)S(=O)(=O)c2ccc(-n3cccn3)cc2)nc2ccc(Cl)cn12 [Compound 105] | 
17 | 71.5 nM | 87% | CCc1c(N(Cc2ccc(C(F)(F)F)cc2)S(=O)(=O)c2ccccc2)nc2c(C(F)(F)F)cccn12 [Compound 58] | 

Row | SMILES | IC50 (canine TRPM8; [1]) | inhibition at 0.2 µM (canine TRPM8; [3]) | also measured
18 | Cc1c(N(Cc2ccc(OC(F)(F)F)cc2)S(=O)(=O)c2ccc(C(=O)[O-])cc2)nc2ccccn12.[Na+] [Compound 107] | 5.68 nM |  | % Inh (%) @ 0.2 μM (canine TRPM8; [1]): 101%; % Inhibition (Male Sprague Dawley rats; [2]): −20.6%
19 | CC(C)c1c(N(Cc2ccc(OC(F)(F)F)cc2)S(=O)(=O)c2ccc(C(=O)[O-])cc2)nc2ccccn12.[Na+] [Compound 109] | 2.31 nM |  | % Inh (%) @ 0.2 μM (canine TRPM8; [1]): 101%; % Inhibition (Male Sprague Dawley rats; [2]): −7.5%
